Legend:
E. coli (ATCC 8739) [1] = assay: Labeling of viable or dead E. coli, fluorescence microscopy; format: cell-based, Escherichia coli; settings: 15 µM, 30 min at 37 °C, Figure 4
Protocol: (§1) Escherichia coli (E. coli) (ATCC 8739) and Bacillus subtilis (B. subtilis) (ATCC 6633) strains were routinely grown in Luria Bertani (LB) broth or on LB agar plates for 18h at 37 °C. Waterborne environmental bacteria such as Enterobacter cloacae (E. cloacae), Chryseobacterium indologenes (C. indologenes), Pseudomonas aeruginosa (P. aeruginosa), and E. coli (EC18) were purchased from Eurofins™. Environmental bacteria were grown in LB broth or on casein-peptone soymeal-peptone agar plates for 18h at 37 °C.
(§2) For the staining tests, E. coli (ATCC 8739 or EC18), E. cloacae, C. indologenes, P. aeruginosa and B. subtilis were cultivated in Luria-Bertani (LB) broth until exponential phase at 37°C with shaking at 300 rpm revolutions per minutes (rpm). Bacteria were harvested and washed in sterile phosphate buffer saline solution (PBS) at pH […] by centrifugation at 10000 rpm for 3 min at room temperature (21 ± 2 °C). Then the bacteria were resuspended in PBS at a concentration of 1·10^9 bacteria/ml. Bacteria concentration was calculated according to the turbidity measure at 660 nm (A660nm=1 correspond to bacterial suspension at ∼ 5·10^8 bacteria/ ml).
(§3) Dead bacterial suspensions at 1·10^9 bacteria/ml (negative controls) of these five species of bacteria were prepared individually by addition of 20 µl of bleach containing 2.6 % active chlorine. Bacteria were treated with bleach solution for 15 min. Dead bacteria were washed twice in sterile PBS by centrifugation at 10000 rpm for 3 min at room temperature. The culturability of the negative controls was assessed by plating 100 µl of bacterial suspension onto LB agar or Caso agar and incubating the plates at 37 °C for 72 h.
(§4) Bacteria (100 µl suspension at 1·10^9 bacteria/ml) were stained with 10 µM or 15 µM of pro-fluorophore (5-CFDA, 5-PFDAE, 5-PFDAT, 5-PFDA, 5-COGDA, 5-POGDA or 5-POGAM) in 200 µl of PBS solution containing 0.6 % of glutaraldehyde. Bacteria were incubated at 37 °C for 10 - 60 min with pro-fluorophore in darkness. After bacterial staining, they were washed and resuspended in 100 µl of PBS as described above.
(§5) Staining of the bacterial suspension was observed under a fluorescent microscope. These bacteria were imaged with a Leica DM5500 microscope equipped with FITC filter. […] Images were collected with a 100x objective. Fluorescence intensity of stained bacterial suspension was also measured with FluoroLog®-3 (Horiba Jobin Yvon) spectrofluorometer equipped with sample stirring. Samples were placed in fluorescence grade quartz cuvette having a volume of 1 ml. The excitation wavelength used was 488 nm and emission wavelength used was 517 nm. The same experiment was repeated three times (n = 3).
The pro-fluorophores according to the present invention are preferably used to label E. coli cells. Viable or dead E. coli (ATCC 8739) are incubated with these fluorophores and commercial 5-CFDA as described above. […] Glutaraldehyde is added to the incubation solutions to improve the retention of the fluorophores in bacteria.
Bacteria were washed before being imaged with a Leica DM5500 microscope, 100x objective. Scale bars indicate 10 µm.

[2] = Absorption spectra / extinction coefficients; format: physicochemical
Protocol: Absorption spectra were recorded in a 1-cm path length cuvette (Hellma, 104.002B-QS) on a SPECORD®-205 spectrometer from Analytik Jena.
The Extinction coefficients of the flourophores fluorescein, 5-carboxyfluorescein (5-CF), 5-carboxy Oregon Green™ (5-COG), 5-amido N-propyl Oregon Green (5-POG; Example 2) and 5-amido N-propyl fluorescein (5-PFA; Example 3) were measured in 0.1 M NaOH solution at pH 12.7.
The extinction coefficients of the pro-fluorophores 5-thiourea N-propyl fluorescein diacetate (5-PFDAT; Example 5), 5-propyl carboxylate fluorescein diacetate (5-PFDAE; Example 8), 5-amido N-propyl fluorescein diacetate (5-PFDA; Example 7), 5-carboxy Oregon Green diacetate (5-COGDA; Example 9), 5-amido N-propyl Oregon Green diacetate (5-POGDA; Example 6) and 5-amido N-propyl Oregon Green acetoxymethylester (5-POGAM; Example 10) were measured in PBS buffer containing 0.6 % glutaraldehyde at pH 7.

[3] = Fluorometric measurements / quantum yield; format: physicochemical; settings: for Φ (quantum yield): 1 µM in 0.1 M NaOH at pH 12.7, excitation 488 nm, standard fluorescein, n = 3; for λem / λex: 0.1 M NaOH at pH 12.7
Protocol: Fluorometric measurements were made using fluorescence grade quartz cuvette and FluoroLog®-3 spectrofluorometer from Horiba Jobin Yvon equipped with sample stirring. The quantum yields (QY) of 5-CF, 5-COG, 5-POG and 5-PFA were measured with samples at 1 µM (absorbance 488 nm ≤ 0.2) in 0.1 M NaOH at pH 12.7. Every sample and the standard (fluorescein) was prepared freshly before use. In this study, fluorescein in 0.1 M NaOH at pH 12.7 was the reference system with a known quantum yield (Φ = 0.925).
Quantum yield measurements were done using standard absorption and emission spectrometers. Emission spectra range was between the wavelengths 498 - 600 nm and excitation wavelength was 488 nm for the samples and fluorescein. The refractive indices of the samples and fluorescein solutions were the same since they were prepared in the same buffer. Under these conditions, quantum yields were calculated by using the equation: Φ^i = (F^ifs/F^sfi)*Φ^s [formula]
wherein Φ^i and Φ^s are the photoluminescence QY of the sample and standard (fluorescein), respectively; F^i and F^s are the integrated intensities (areas) of sample and fluorescein spectra, respectively; and fi and fs are the absorption factor of the sample and fluorescein, respectively, with fi or s = 1-10^-Ai or s, wherein A = absorbance.
The same experiment was repeated three times (n = 3).

[4] = Short-term chemical stability (spontaneous fluorescence generation) in aqueous buffer; format: physicochemical; settings: for chemical stability in aqueous solution (in words): PBS solution containing 0.6 % glutaraldehyde, 37°C
Protocol: The short-term chemical stability of the pro-fluorophores of the present invention in an aqueous buffer was evaluated by fluorometric measurement analysis after several minutes of storage at 37°C.
Each pro-fluorophore (5-CFDA, 5-PFDAE, 5-PFDAT, 5-PFDA, 5-COGDA, 5-POGDA, 5-POGAM) was dissolved in dimethylsulfoxide (DMSO) in order to prepare a 10 mM stock solution. Short-term stability studies (0-60 min) were performed in the absence of light at 37°C. The pro-fluorophore stock solutions were diluted into a PBS solution containing 0.6 % of glutaraldehyde (pH ∼7). The pro-fuorophore final concentration was 15 µM. Samples were stored in a fluorescence grade quartz cuvette having a volume of 1 ml. Fluorescence emission spectra between 500 and 540 nm were recorded every 10 minutes. The excitation wavelength used was 488 nm. Fluorometric measurement were made with a FluoroLog®-3. (Horiba Jobin Yvon) spectrofluorometer equipped with sample stirring. The same experiment was repeated three times (n = 3).
Thus, the slope of the straight line corresponds to the speed of spontaneous fluorescence generation.

E. coli (ATCC 8739) [5] = assay: Labeling of viable E. coli, fluorescence intensity by spectrofluorometer; format: cell-based, Escherichia coli
Protocol: as §2, §3
[…] Bacteria were incubated at 37 °C for 10 - 60 min with pro-fluorophore in darkness. After bacterial staining, they were washed and resuspended in 100 µl of PBS as described above.
as §5
Viable or dead E. coli (ATCC 8739) were incubated with different pro-fluorophores (10 - 15 µM) for 30 min at 37 °C. After washes, fluorescence of the E. coli suspension was measured with a FluoroLog®-3 spectrofluorometer (excitation wavelength: 488 nm, emission wavelength: 517 nm). Relative rates of viable E. coli fluorescence intensity were calculated by normalizing the difference of viable E. coli fluorescence intensity and dead E. coli fluorescence intensity with 5-CFDA staining.
Viable E. coli (ATCC 8739) were incubated with different pro-fluorophores (15 µM) at 37 °C for 10 - 60 min. After washes, E. coli fluorescence suspension was measured with FluoroLog®-3 spectrofluorometer (excitation wavelength: 488 nm, emission wavelength: 517 nm).

[6] = tested on: Bacillus subtilis (B. subtilis) (ATCC 6633); assay: Bacteria staining test, fluorescence microscopy; format: cell-based; settings: Fig. 3d, comparison between pro-fluorophores
Protocol: as §1, §2, §3, §4, §5

[7] = fluorophores, 0.1 M NaOH solution at pH 12.7
[8] = pro-fluorophores, PBS buffer containing 0.6 % glutaraldehyde at pH 7

E (extinction coefficient) [2, 7] [M⁻¹ cm⁻¹] | λAbs max [2, 7] [nm] | Φ (quantum yield) [3] | λem [3] [nm] | λex [3] [nm] | E (extinction coefficient) [2, 8] [M⁻¹ cm⁻¹] | λAbs max [2, 8] [nm] | SMILES | staining of viable E. coli (microscopy) (E. coli (ATCC 8739) [1]) | further results
– | – | – | – | – | 7903 ± 761 | 295 | CCCOC(=O)c1ccc2c(c1)C(=O)OC21c2ccc(OC(C)=O)cc2Oc2cc(OC(C)=O)ccc21 [Example 5-PFDAE, 3-oxo-5-(propoxycarbonyl)-3H-spiro[isobenzofuran-1,9'-xanthene]-3',6'-diyl diacetate] | weaker green fluorescence, as compared to 5-CFDA staining | chemical stability in aqueous solution (in words) [4]: remarkable stability; fluorescence signal of dead E. coli (microscopy) (E. coli (ATCC 8739) [1]): No fluorescence signal of dead bacteria was detected
76474 ± 4009 | 493 | 0.963 ± 0.004 | 517 ± 0.6 | 491 ± 0.7 | – | – | O=C(O)c1ccc2c(c1)C(=O)OC21c2ccc(O)cc2Oc2cc(O)ccc21 [Example 5-CF, 5-carboxyfluorescein, reference compound] | – | –
73490 ± 8454 | 495 | 0,835 ± 0.002 | 518 ± 0.4 | 493 ± 0.3 | – | – | CCCNC(=O)c1ccc2c(c1)C(=O)OC21c2ccc(O)cc2Oc2cc(O)ccc21 [Example 5-PFA, 3',6'-dihydroxy-3-oxo-N-propyl-3H-spiro[isobenzofuran-1,9'-xanthene]-5-carboxamide] | – | –
83136 ± 4452 | 493 | 0,912 ± 0.011 | 517 ± 0.4 | 491 ± 1.2 | – | – | O=C(O)c1ccc2c(c1)C(=O)OC21c2cc(F)c(O)cc2Oc2cc(O)c(F)cc21 [Example 5-COG, 5-carboxy Oregon Green™, reference compound] | – | –
– | – | – | – | – | 9284 ± 758 | 291 | CCCNC(=O)c1ccc2c(c1)C(=O)OC21c2ccc(OC(C)=O)cc2Oc2cc(OC(C)=O)ccc21 [Example 5-PFDA, 3-oxo-5-(propylcarbamoyl)-3H-spiro[isobenzofuran-1,9'-xanthene]-3',6'-diyl diacetate] | specifically stained with high fluorescence intensity | viable E. coli fluorescence intensity compared with 5-CFDA over incubation time (E. coli (ATCC 8739) [5]; 15 µM, 37 °C, incubation for 10 to 60 min, Figure 6): higher fluorescence intensity than incubation with 5-CFDA

Continued, compound first:

SMILES | E (extinction coefficient) [2, 7] [M⁻¹ cm⁻¹] | λAbs max [2, 7] [nm] | Φ (quantum yield) [3] | λem [3] [nm] | λex [3] [nm] | E (extinction coefficient) [2, 8] [M⁻¹ cm⁻¹] | λAbs max [2, 8] [nm] | staining of viable E. coli (microscopy) (E. coli (ATCC 8739) [1]) | further results
CCCNC(=S)Nc1ccc2c(c1)C(=O)OC21c2ccc(OC(C)=O)cc2Oc2cc(OC(C)=O)ccc21 [Example 5-PFDAT, 3-oxo-5-(3-propylthioureido)-3H-spiro[isobenzofuran-1,0'-xanthene]-3',6'-diyl diacetate] | – | – | – | – | – | – | – | become fluorescent | fluorescence signal of dead E. coli (microscopy) (E. coli (ATCC 8739) [1]): become fluorescent
CCCNC(=O)c1ccc2c(c1)C(=O)OC21c2cc(F)c(O)cc2Oc2cc(O)c(F)cc21 [Example 5-POG, 2',7'-difluoro-3',6'-dihydroxy-3-oxo-N-propyl-3H-spiro[isobenzofuran-1,9'-xanthene]-5-carboxamide] | 74835 ± 4762 | 495 | 0,902 ± 0.013 | 518 ± 1.1 | 493 ± 0.6 | – | – | – | –
CC(=O)Oc1cc2c(cc1F)C1(OC(=O)c3cc(C(=O)O)ccc31)c1cc(F)c(OC(C)=O)cc1O2 [Example 5-COGDA, 3',6'-diacetoxy-2',7'-difluoro-3-oxo-3H-spiro[isobenzofuran-1,9'-xanthene]-5-carboxylic acid] | – | – | – | – | – | 6979 ± 282 | 300 | specifically stained with high fluorescence intensity | chemical stability in aqueous solution (in words) [4]: less stable; relative speed of spontaneous fluorescence generation (spontaneous hydrolysis) ([4]; relative to 5-CFDA, 15 µM, PBS containing 0.6 % glutaraldehyde, pH ~7, 37°C, 0-60 min): eight times higher; viable E. coli fluorescence intensity relative to 5-CFDA staining (E. coli (ATCC 8739) [5]; 10 - 15 µM, 30 min at 37 °C, excitation 488 nm, emission 517 nm, Figure 5): between two and three times higher
CC(=O)Oc1ccc2c(c1)Oc1cc(OC(C)=O)ccc1C21OC(=O)c2cc(C(=O)O)ccc21 [Example 5-CFDA, 5-carboxyfluorescein diacetate, reference compound] | – | – | – | – | – | – | – | – | fluorescence intensity of the stained B. subtilis [6]: higher than the staining with 5-POGDA and 5-POGAM

From patent EP3050886A1, “Fluorescent dyes and dye precursors” (Bürkert Werke GmbH, priority 2015, dated 2016)
